Reference: PubChem BioAssay AID1845217 (Molecular Pharmacology Branch, DTP, NCI, 2023)

Test system: VA-ES-BJ tumor spheroid viability
Assay: Anticancer human tumor VA-ES-BJ cell line growth inhibition;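 also: spheroids exposed to compounds for seven days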;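 as to viability, T/C: percent of DMSO vehicle control viability so 100% = untreated growth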
Conditions: spheroids with HUVEC and MSC; for IC50: curve of first compound; for viability, T/C: stronger effect = lower value; active = viability on the fitted dose curve at most 10% of control; inactive = the rest
Outline: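 Single agents and combinations were tested on spheroids built from tumor cells plus HUVEC and hMSC, at half-log dilutions starting at or near clinical Cmax, else 10 microM; final DMSO 0.25% (v/v).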

Cc1cc(C)c(CNC(=O)c2cc(-c3ccc(CN4CCOCC4)cc3)cc3c2cnn3C2CCCC2)c(=O)[nH]1 + Cn1nnc2c(C(N)=O)ncn2c1=O
inactive: viability, T/C (second compound 1 µM, first compound 0.0316 µM) 114% | viability, T/C (second compound 1 µM, first compound 0.1 µM) 97.9% | viability, T/C (second compound 1 µM, first compound 0.316 µM) 101% | viability, T/C (second compound 1 µM, first compound 1 µM) 113% | viability, T/C (second compound 1 µM, first compound 3.16 µM) 117% | viability, T/C (second compound 1 µM, first compound 10 µM) 104% | viability, T/C (second compound 3.16 µM, first compound 0.0316 µM) 99.2% | viability, T/C (second compound 3.16 µM, first compound 0.1 µM) 102% | viability, T/C (second compound 3.16 µM, first compound 0.316 µM) 92.7% | viability, T/C (second compound 3.16 µM, first compound 1 µM) 97.6% | viability, T/C (second compound 3.16 µM, first compound 3.16 µM) 110% | viability, T/C (second compound 3.16 µM, first compound 10 µM) 101% | viability, T/C (second compound 10 µM, first compound 0.0316 µM) 102% | viability, T/C (second compound 10 µM, first compound 0.1 µM) 100% | viability, T/C (second compound 10 µM, first compound 0.316 µM) 101% | viability, T/C (second compound 10 µM, first compound 1 µM) 109% | viability, T/C (second compound 10 µM, first compound 3.16 µM) 108% | viability, T/C (second compound 10 µM, first compound 10 µM) 104% | viability, T/C (second compound 31.6 µM, first compound 0.0316 µM) 91.2% | viability, T/C (second compound 31.6 µM, first compound 0.1 µM) 96.8% | viability, T/C (second compound 31.6 µM, first compound 0.316 µM) 94.8% | viability, T/C (second compound 31.6 µM, first compound 1 µM) 110% | viability, T/C (second compound 31.6 µM, first compound 3.16 µM) 104% | viability, T/C (second compound 31.6 µM, first compound 10 µM) 96% | viability, T/C (second compound 100 µM, first compound 0.0316 µM) 103% | viability, T/C (second compound 100 µM, first compound 0.1 µM) 108% | viability, T/C (second compound 100 µM, first compound 0.316 µM) 92.1% | viability, T/C (second compound 100 µM, first compound 1 µM) 102% | viability, T/C (second compound 100 µM, first compound 3.16 µM) 122% | viability, T/C (second compound 100 µM, first compound 10 µM) 109%
> 10 µM: IC50 (second compound 1 µM) | IC50 (second compound 3.16 µM) | IC50 (second compound 10 µM) | IC50 (second compound 31.6 µM) | IC50 (second compound 100 µM)
